Experimental data published in ChEMBL document CHEMBL1201862, “PubChem BioAssay data set” (2004).
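Dose response: 5 concentrations. Exposure: 48 h. Format: 96-well plates. Endpoint: linear interpolation; highest concentration if not reached. Abbreviation: GI50, concentration required for 50% inhibition of growth.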 Active and inactive are the calls of the source. No stated cut-off is given here; in the data, active = GI50 up to about 1.1 µM and inactive = higher.

Legend:
Assay in all cases: growth of human tumour cells (NCI), 48 h
NCI-H23 = tested on: NCI-H23
SF-539 = tested on: SF-539
SK-OV-3 = tested on: SK-OV-3
UACC-62 = tested on: UACC-62
EKVX = tested on: EKVX
MCF7 = tested on: MCF7
HOP-92 = tested on: HOP-92
SR = tested on: SR
786-0 = tested on: 786-0
SF-295 = tested on: SF-295
SK-MEL-2 = tested on: SK-MEL-2
SNB-19 = tested on: SNB-19
PC-3 = tested on: PC-3
OVCAR-5 = tested on: OVCAR-5
HCT-116 = tested on: HCT-116
K562 = tested on: K562
MDA-MB-231 = tested on: MDA-MB-231

For `c1ccc2c(c1)nc1n2CCCn2ccnc2-1`, the GI50 (NCI-H23) was > 100 µM (inactive), the GI50 (SF-539) was 96.2 µM (inactive) and the GI50 (SK-OV-3) was 0.0137 µM (active). The GI50 (UACC-62) was > 100 µM (inactive), the GI50 (EKVX) was 43 µM (inactive) and the GI50 (MCF7) was > 100 µM (inactive). For the same compound, the GI50 (HOP-92) was > 100 µM (inactive), the GI50 (SR) was > 100 µM (inactive) and the GI50 (786-0) was > 100 µM (inactive). The GI50 (SF-295) was > 100 µM (inactive), the GI50 (SK-MEL-2) was > 100 µM (inactive) and the GI50 (SNB-19) was > 100 µM (inactive). For the same compound, the GI50 (PC-3) was > 100 µM (inactive), the GI50 (OVCAR-5) was > 100 µM (inactive) and the GI50 (HCT-116) was > 100 µM (inactive). For the same compound, the GI50 (K562) was > 100 µM (inactive) and the GI50 (MDA-MB-231) was > 100 µM (inactive).
With `Cc1cccc(/N=N/C(=N\NC(=O)c2cc(Cl)ccc2O)c2ccc(N(CCC#N)CCC#N)cc2C)c1` the GI50 (NCI-H23) was 32.7 µM (inactive), the GI50 (SF-539) was 33.3 µM (inactive) and the GI50 (SK-OV-3) was 35.7 µM (inactive). The GI50 (UACC-62) was 24 µM (inactive), the GI50 (EKVX) was 34.7 µM (inactive) and the GI50 (MCF7) was 32.2 µM (inactive). For the same compound, the GI50 (HOP-92) was 23.8 µM (inactive), the GI50 (SR) was 22.8 µM (inactive) and the GI50 (786-0) was 38.5 µM (inactive). The GI50 (SF-295) was 40.3 µM (inactive), the GI50 (SK-MEL-2) was 29 µM (inactive) and the GI50 (SNB-19) was 35.1 µM (inactive). For the same compound, the GI50 (PC-3) was 25.8 µM (inactive), the GI50 (OVCAR-5) was 64.9 µM (inactive) and the GI50 (HCT-116) was 33 µM (inactive). For the same compound, the GI50 (K562) was 33.3 µM (inactive) and the GI50 (MDA-MB-231) was 21.2 µM (inactive).
In the case of `CCOC(=O)N1CCN(c2ccc3ccc(N)nc3n2)CC1`, the GI50 (NCI-H23) is reported as > 100 µM (inactive), the GI50 (SF-539) is reported as > 100 µM (inactive) and the GI50 (SK-OV-3) is reported as > 100 µM (inactive). For the same compound, the GI50 (UACC-62) was > 100 µM (inactive), the GI50 (EKVX) was > 100 µM (inactive) and the GI50 (MCF7) was > 100 µM (inactive). For the same compound, the GI50 (HOP-92) was > 100 µM (inactive), the GI50 (SR) was > 100 µM (inactive) and the GI50 (786-0) was > 100 µM (inactive). For the same compound, the GI50 (SF-295) was > 100 µM (inactive), the GI50 (SK-MEL-2) was > 100 µM (inactive) and the GI50 (SNB-19) was > 100 µM (inactive). For the same compound, the GI50 (PC-3) was > 100 µM (inactive), the GI50 (OVCAR-5) was > 100 µM (inactive) and the GI50 (HCT-116) was > 100 µM (inactive). For the same compound, the GI50 (K562) was > 100 µM (inactive) and the GI50 (MDA-MB-231) was > 100 µM (inactive).
`O=C(OCC1CCCN2CCCCC12)c1ccncc1` (centres undefined) was tested, and the GI50 (NCI-H23) was > 100 µM (inactive), the GI50 (SF-539) was > 100 µM (inactive) and the GI50 (SK-OV-3) was > 100 µM (inactive). For the same compound, the GI50 (UACC-62) was > 100 µM (inactive), the GI50 (EKVX) was > 100 µM (inactive) and the GI50 (MCF7) was > 100 µM (inactive). For the same compound, the GI50 (HOP-92) was > 100 µM (inactive), the GI50 (SR) was > 100 µM (inactive) and the GI50 (786-0) was > 100 µM (inactive). For the same compound, the GI50 (SF-295) was > 100 µM (inactive), the GI50 (SK-MEL-2) was > 100 µM (inactive) and the GI50 (SNB-19) was > 100 µM (inactive). For the same compound, the GI50 (PC-3) was > 100 µM (inactive), the GI50 (OVCAR-5) was > 100 µM (inactive) and the GI50 (HCT-116) was > 100 µM (inactive). For the same compound, the GI50 (K562) was > 100 µM (inactive) and the GI50 (MDA-MB-231) was > 100 µM (inactive).
`CCOC(=O)C1C/C(C)=C(/C)SCCCS1` (centres undefined) was tested, and the GI50 (NCI-H23) was 80 µM (inactive), the GI50 (SF-539) was > 100 µM (inactive) and the GI50 (SK-OV-3) was > 100 µM (inactive). The GI50 (UACC-62) was > 100 µM (inactive), the GI50 (EKVX) was > 100 µM (inactive) and the GI50 (MCF7) was > 100 µM (inactive). The GI50 (HOP-92) was > 100 µM (inactive), the GI50 (SR) was 65.5 µM (inactive) and the GI50 (786-0) was > 100 µM (inactive). The GI50 (SF-295) was > 100 µM (inactive), the GI50 (SK-MEL-2) was > 100 µM (inactive) and the GI50 (SNB-19) was > 100 µM (inactive). The GI50 (PC-3) was > 100 µM (inactive), the GI50 (OVCAR-5) was > 100 µM (inactive) and the GI50 (HCT-116) was 50.2 µM (inactive). For the same compound, the GI50 (K562) was 46.1 µM (inactive) and the GI50 (MDA-MB-231) was > 100 µM (inactive).
With `O=C1C(Cl)=C(N(C(=O)c2ccccc2)C(=O)c2ccccc2)C(=O)c2ccccc21` the GI50 (NCI-H23) was 5.42 µM (inactive), the GI50 (SF-539) was 4.3 µM (inactive) and the GI50 (SK-OV-3) was 40.6 µM (inactive). The GI50 (UACC-62) was 5.12 µM (inactive), the GI50 (EKVX) was 5.74 µM (inactive) and the GI50 (MCF7) was 10.1 µM (inactive). The GI50 (HOP-92) was 13.1 µM (inactive), the GI50 (SR) was 15.5 µM (inactive) and the GI50 (786-0) was 14.5 µM (inactive). For the same compound, the GI50 (SF-295) was 28.2 µM (inactive), the GI50 (SK-MEL-2) was 11.4 µM (inactive) and the GI50 (SNB-19) was 26.6 µM (inactive). The GI50 (PC-3) was 9.18 µM (inactive), the GI50 (OVCAR-5) was 12.2 µM (inactive) and the GI50 (HCT-116) was 4.12 µM (inactive). For the same compound, the GI50 (K562) was 3.4 µM (inactive) and the GI50 (MDA-MB-231) was 9.71 µM (inactive).
For `Cc1cnc2sn(-c3ccc([N+](=O)[O-])cc3)c(=O)c2c1`, the GI50 (NCI-H23) was 42.9 µM (inactive), the GI50 (SK-OV-3) was 29 µM (inactive) and the GI50 (UACC-62) was 64.7 µM (inactive). For the same compound, the GI50 (EKVX) was 74.1 µM (inactive), the GI50 (MCF7) was > 100 µM (inactive) and the GI50 (HOP-92) was 33.3 µM (inactive). For the same compound, the GI50 (SR) was > 100 µM (inactive), the GI50 (786-0) was 56.8 µM (inactive) and the GI50 (SF-295) was 45.3 µM (inactive). The GI50 (SK-MEL-2) was 45.7 µM (inactive), the GI50 (SNB-19) was 50.4 µM (inactive) and the GI50 (PC-3) was 66.2 µM (inactive). For the same compound, the GI50 (OVCAR-5) was > 100 µM (inactive), the GI50 (HCT-116) was > 100 µM (inactive) and the GI50 (K562) was > 100 µM (inactive). The GI50 (MDA-MB-231) was 82.2 µM (inactive).
With `Cc1cc(CNC(=O)OCc2ccccc2)c(C)c2c1Oc1ccccc1O2` the GI50 (NCI-H23) was 24.3 µM (inactive), the GI50 (SK-OV-3) was 17.1 µM (inactive) and the GI50 (UACC-62) was 26.5 µM (inactive). For the same compound, the GI50 (EKVX) was 42.9 µM (inactive), the GI50 (MCF7) was 49.5 µM (inactive) and the GI50 (HOP-92) was 1.26 µM (inactive). The GI50 (SR) was > 100 µM (inactive), the GI50 (786-0) was 15 µM (inactive) and the GI50 (SF-295) was 31.8 µM (inactive). The GI50 (SK-MEL-2) was < 0.01 µM (active), the GI50 (SNB-19) was 25.5 µM (inactive) and the GI50 (PC-3) was 43.4 µM (inactive). For the same compound, the GI50 (OVCAR-5) was 43.4 µM (inactive), the GI50 (HCT-116) was 36.6 µM (inactive) and the GI50 (K562) was > 100 µM (inactive). The GI50 (MDA-MB-231) was 6.67 µM (inactive).
